Test results reported in patent US20220194959A1, “CRYSTAL FORM OF EGFR INHIBITOR AND PREPARATION METHOD THEREOF” (MEDSHINE DISCOVERY INC., priority 2019, published 2022).
Values belong to the compound of their own block, whether it stands above or below them.

What was measured:
Format in all cases: physicochemical
[1] = Solubility assay in media with different pHs; details: for solubility at 2 h / solubility at 24 h: 37 °C, thermodynamic from solid; for Solubility (2 hours) / Solubility (24 hours): 37° C.; for Final pH: filtrate of saturated solution
Experimental: (§1) 9 parts of 4 mg of the crystal form A of the compound of formula (II) were weighed and added to a 1.5 mL sample bottle, respectively, and then 1 mL of different media (0.1 mol/L HCl, 0.01 mol/L HCl, pH3.8 buffer solution, pH4.5 buffer solution, pH5.5 buffer solution, pH6.0 buffer solution, pH6.8 buffer solution, pH7.4 buffer solution, and water) were added, respectively. Based on the dissolution situation, the raw material compound was continuously added until a saturated solution was formed. The magnetic bar was added to the above suspension, and the suspension was placed on a magnetic stirrer (37° C., protected from light) and stirred. […] The upper layer of the sample was filtered with a filter membrane, and the pH value of the filtrate was determined. The saturated solubility of the compound was determined by HPLC.
as §1, with “C” for “A”

[2] = Hygroscopicity study by dynamic vapor sorption (DVS)
Experimental: 1.4. Dynamic Vapor Sorption, DVS Method
Instrument model: SMS DVS Advantage dynamic vapor sorption apparatus
Test conditions: The sample (10 to 15 mg) is weighed and placed in a DVS sample pan for testing.
The detailed DVS parameters are as follows:
Equilibration: dm/dt=0.01%/min (The shortest time: 10 min, and the longest time: 180 min)
Drying: Dried for 120 min at 0% RH
RH (%) test gradient: 10%
Range of RH (%) test gradient: 0%-90%-0%
The classification of hygroscopicity evaluation is as follows:
10-15 mg of the crystal form A and the crystal form C of the compound of formula (II) were weighed and placed into a DVS sample pan for testing.

[3] = Stability assay under illumination, high humidity, high temperature and acceleration (related substances and crystal form); design: Total impurity: unit not given here; details: for Change of crystal form: 10 days
Experimental: The stability of crystal form of the crystal form A and the crystal form C of the compound of formula (II) under the conditions of illumination, high humidity (92.5% RH), high temperature (60° C.) and acceleration (40° C./75% RH) was investigated.
Illumination test chamber, model: SHH-100GD-2, conditions: 5000±500 lux (visible light) and 90 mw/cm^2 (ultraviolet).
Electrothermal blowing dry box, model: GZX-9140MBE, conditions: 60° C.
Constant temperature and humidity chamber, model: LDS-800Y, conditions: 40° C./75% RH.
Constant temperature and humidity chamber, model: SHH-250SD, conditions: 25° C., 92.5% RH.
An appropriate amount of the crystal form A of the compound of formula (II) was weighed and placed in a dry and clean weighing bottle. The sample was spread into a thin layer, and fully exposed to assay conditions (60° C., 92.5% RH, illumination) and acceleration conditions (40° C./75% RH). After 17 days, the compound was taken out and determined for related substances and crystal form. […]

[4] = 0.1 mol/L HCl, pH 1, simulated gastric fluid
[5] = pH 6.8 buffer solution, pH 6.8, aqueous buffer
[6] = pH 7.4 buffer solution, pH 7.4, aqueous buffer

solubility at 2 h ([1]; 0.01 mol/L HCl, pH 2, simulated gastric fluid): 7440 µg/mL
solubility at 2 h [1, 4]: > 10000 µg/mL
solubility at 24 h [1, 4]: > 10000 µg/mL
solubility at 24 h ([1]; pH 5.5 buffer solution, pH 5.5, aqueous buffer): 1300 µg/mL
solubility at 2 h [1, 5]: 354 µg/mL
solubility at 24 h [1, 5]: 73 µg/mL
solubility at 2 h [1, 6]: 99 µg/mL
solubility at 24 h [1, 6]: 22 µg/mL
solubility at 24 h ([1]; water): 1140 µg/mL
SMILES: COc1cc2ncnc(Nc3cccc(Cl)c3F)c2cc1N1CC2(CN(C)C2)OC1=O.Cc1ccc(S(=O)(=O)O)cc1

ΔW (weight increase by moisture absorption) ([2]; 25° C. and 80% RH): 3.697%
Classification of hygroscopicity ([2]; 25° C., 80% RH): hygroscopic
Stability compared with the crystal form D of the maleate of the compound of formula (I) [3]: better
Related substance at relative retention time 0.24 ([3]; 40° - 75% RH - 10 days): 0.03
Related substance at relative retention time 0.69 ([3]; 40° - 75% RH - 10 days): 0.06
Related substance at relative retention time 0.88 ([3]; 40° - 75% RH - 10 days): 0.04
Related substance at relative retention time 0.92 ([3]; 40° - 75% RH - 10 days): 0.02
Related substance at relative retention time 1.24 ([3]; 40° - 75% RH - 10 days): 0.14
Related substance at relative retention time 1.30 ([3]; 40° - 75% RH - 10 days): 0.17
Related substance at relative retention time 1.81 ([3]; 40° - 75% RH - 10 days): 0.03
Total impurity ([3]; 40° - 75% RH - 10 days): 0.53
Related substance at relative retention time 0.24 ([3]; 60° - 10 days): 0.02
Related substance at relative retention time 0.69 ([3]; 60° - 10 days): 0.26
Related substance at relative retention time 0.88 ([3]; 60° - 10 days): 0.03
Related substance at relative retention time 1.24 ([3]; 60° - 10 days): 0.11
Related substance at relative retention time 1.30 ([3]; 60° - 10 days): 0.17
Related substance at relative retention time 1.81 ([3]; 60° - 10 days): 0.05
Related substance at relative retention time 1.89 ([3]; 60° - 10 days): 0.05
Total impurity ([3]; 60° - 10 days): 0.69
Related substance at relative retention time 0.24 ([3]; 92.5% RH - 10 days): 0.02
Related substance at relative retention time 0.69 ([3]; 92.5% RH - 10 days): 0.04
Related substance at relative retention time 0.88 ([3]; 92.5% RH - 10 days): 0.02
Related substance at relative retention time 1.24 ([3]; 92.5% RH - 10 days): 0.12
Related substance at relative retention time 1.30 ([3]; 92.5% RH - 10 days): 0.17
Total impurity ([3]; 92.5% RH - 10 days): 0.37
Related substance at relative retention time 0.24 ([3]; Illumination - 10 days): 0.02
Related substance at relative retention time 0.69 ([3]; Illumination - 10 days): 0.04
Related substance at relative retention time 0.81 ([3]; Illumination - 10 days): 0.04
Related substance at relative retention time 0.92 ([3]; Illumination - 10 days): 0.05
Related substance at relative retention time 1.15 ([3]; Illumination - 10 days): 0.02
Related substance at relative retention time 1.17 ([3]; Illumination - 10 days): 0.03
Related substance at relative retention time 1.24 ([3]; Illumination - 10 days): 0.11
Related substance at relative retention time 1.30 ([3]; Illumination - 10 days): 0.17
Total impurity ([3]; Illumination - 10 days): 0.40
Related substance at relative retention time 0.24 ([3]; Initial sample): 0.02
Related substance at relative retention time 0.69 ([3]; Initial sample): 0.04
Related substance at relative retention time 0.88 ([3]; Initial sample): 0.02
Related substance at relative retention time 0.92 ([3]; Initial sample): 0.02
Related substance at relative retention time 1.24 ([3]; Initial sample): 0.12
Related substance at relative retention time 1.30 ([3]; Initial sample): 0.17
Total impurity ([3]; Initial sample): 0.42
Change of crystal form ([3]; acceleration (40° C./75% RH)): not changed
Change of crystal form ([3]; high humidity (92.5% RH)): not changed
Change of crystal form ([3]; high temperature (60° C.)): not changed
Change of crystal form ([3]; illumination): not changed
Solubility (2 hours) ([1]; 0.01 mol/L HCl): 5666 µg/mL
Solubility (24 hours) ([1]; 0.01 mol/L HCl): 2863 µg/mL
Solubility (2 hours) ([1]; 0.1 mol/L HCl): >10000 µg/mL
Solubility (24 hours) ([1]; 0.1 mol/L HCl): >10000 µg/mL
Solubility (conclusion) ([1]; buffer solutions below pH 6.8 and purified water): high solubility
Final pH ([1]; 0.01 mol/L HCl): 2.863
Final pH ([1]; pH 3.8 buffer solution): 3.928
Final pH ([1]; pH 4.5 buffer solution): 4.560
Final pH ([1]; pH 5.5 buffer solution): 5.528
Final pH ([1]; pH 6.0 buffer solution): 5.708
Final pH ([1]; pH 6.8 buffer solution): 6.625
Final pH ([1]; pH 7.4 buffer solution): 7.142
Final pH ([1]; water): 5.444
Evaluation of dissolution property ([1]; merged cell: 0.1 mol/L HCl, 0.01 mol/L HCl, pH 3.8, 4.5, 5.5, 6.0 buffer solutions and water): High solubility
Evaluation of dissolution property ([1]; merged cell: pH 6.8 and pH 7.4 buffer solutions): Low solubility
Solubility (2 hours) ([1]; pH 3.8 buffer solution): 1612 µg/mL
Solubility (24 hours) ([1]; pH 3.8 buffer solution): 1681 µg/mL
Solubility (2 hours) ([1]; pH 4.5 buffer solution): 1167 µg/mL
Solubility (24 hours) ([1]; pH 4.5 buffer solution): 1186 µg/mL
Solubility (2 hours) ([1]; pH 5.5 buffer solution): 916 µg/mL
Solubility (24 hours) ([1]; pH 5.5 buffer solution): 863 µg/mL
Solubility (2 hours) ([1]; pH 6.0 buffer solution): 699 µg/mL
Solubility (24 hours) ([1]; pH 6.0 buffer solution): 328 µg/mL
Solubility (2 hours) ([1]; pH 6.8 buffer solution): 260 µg/mL
Solubility (24 hours) ([1]; pH 6.8 buffer solution): 71 µg/mL
Solubility (2 hours) ([1]; pH 7.4 buffer solution): 81 µg/mL
Solubility (24 hours) ([1]; pH 7.4 buffer solution): 40 µg/mL
Solubility (2 hours) ([1]; water): 720 µg/mL
Solubility (24 hours) ([1]; water): 646 µg/mL
SMILES: COc1cc2ncnc(Nc3cccc(Cl)c3F)c2cc1N1CC2(CN(C)C2)OC1=O.Cc1ccc(S(=O)(=O)O)cc1 [crystal form C of the compound of formula (II)]
Formation of degradation impurity (conclusion) ([3]; illumination, high temperature, high humidity, acceleration): produces a degradation impurity only under the condition of high temperature
